Source: patent US20050245399A1, “Pyrazole derivatives as herbicidal compositions containing them” (ISHIHARA SANGYO KAISHA, LTD., priority 2004, published 2005)

Columns and labels:
Assay type in all cases: in vivo
[1] = test system: wheat (Triticum aestivum L.): TRZAX; test: Test Example 1 pre-emergence herbicidal activity, TRZAX; settings: Rate 63 g a.i./ha, visually observed 20th to 23rd day after application
Outline: (§1)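 Visual scoring 20–23 days after treatment gives percent growth control, where 0 equals untreated and 100 means complete kill. Treatment: pre-emergence spray of formulated compound in 500 L/ha water, one day after sowing in upland soil.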

[2] = test system: redroot pigweed (Amaranthus retroflexus L.), AMARE; test: Test Example 2 post-emergence (foliage treatment) herbicidal activity, AMARE
Outline: (§2)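 Foliar spray of formulated compound (500 L/ha dilution water, 0.1% v/v spreader) onto young potted plants at defined leaf stages. Scored 0-100% by visual inspection 20-23 d post-spray.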

[3] = test system: prickly sida (Sida spinosa L.), SIDSP; test: Test Example 2 post-emergence (foliage treatment) herbicidal activity, SIDSP
Outline: (§3)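 A small sprayer delivered the diluted WP or EC formulation (500 L/ha water, 0.1% v/v spreader) over emerged seedlings in upland soil pots. Damage relative to untreated plants was graded visually from 0 to 100% three weeks or so later (days 20-23).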

[4] = test system: green foxtail (Setaria viridis L.): SETVI; test: Test Example 1 pre-emergence herbicidal activity, SETVI; settings: Rate 63 g a.i./ha, visually observed 20th to 23rd day after application
Outline: as §1

[5] = test system: japanese ribbon wapato (Sagittaria pygmaea: SA GPY); test: Test Example 3 water application herbicidal activity (paddy), SAGPY; settings: 63 g a.i./ha, water application under submerged condition, tubers planted, visually observed 14th day after application; 0 = untreated control, 100 = complete kill
Outline: (§4)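 Submerged application in flooded paddy soil (3–4 cm water); weeds treated at 0.5-leaf stage, transplanted rice 4 d after transplanting. Scored visually as % growth control: weeds at 14 d, rice at 21 d.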

[6] = test system: soybean (Glycine max Merr.), GLXMA; test: Test Example 2 post-emergence (foliage treatment) herbicidal activity, GLXMA
Outline: as §3

[7] = test system: rice (Oryza sativa L.), ORYSA; test: Test Example 2 post-emergence (foliage treatment) herbicidal activity, ORYSA
Outline: as §2

[8] = test system: green foxtail (Setaria viridis L.), SETVI; test: Test Example 2 post-emergence (foliage treatment) herbicidal activity, SETVI
Outline: as §3

[9] = test system: japanese bulrush (Scirpus juncoides: SCPJO); test: Test Example 3 water application herbicidal activity (paddy), SCPJO; settings: 63 g a.i./ha, water application under submerged condition at 0.5 leaf stage, visually observed 14th day after application; 0 = untreated control, 100 = complete kill
Outline: as §4

[10] = test system: barnyardgrass (Echinochloa crus-galli L.), ECHCG; test: Test Example 2 post-emergence (foliage treatment) herbicidal activity, ECHCG
Outline: as §2

[11] = test system: barnyardgrass (Echinochiloa oryzicola: ECHOR); test: Test Example 3 water application herbicidal activity (paddy), ECHOR; settings: 63 g a.i./ha, water application under submerged condition at 0.5 leaf stage, visually observed 14th day after application; 0 = untreated control, 100 = complete kill
Outline: as §4

[12] = test system: common cocklebur (Xanthium strumarium L.): XANST; test: Test Example 1 pre-emergence herbicidal activity, XANST; settings: Rate 63 g a.i./ha, visually observed 20th to 23rd day after application
Text: Upland field soil was put into a 1/170,000 ha pot, and seeds of various plants {1. barnyardgrass (Echinochloa crus-galli L.): ECHCG, 2. crabgrass (Digitaria sanguinalis L.): DIGSA, 3. green foxtail (Setaria viridis L.): SETVI, 4. redroot pigweed (Amaranthus retroflexus L.): AMARE, 5. prickly sida (Sida spinosa L.): SEDSP, 6. velvetleaf (Abutilon theophrasti): ABUTH, 7. common cocklebur (Xanthium strumarium L.): XANST, 8. rice (Oryza sativa L.): ORYSA, 9. wheat (Triticum aestivum L.): TRZAX, 10. corn (Zea mays L.): ZEAMX, 11. soybean (Glycine max Merr.): GLXMA} were sown. Then, one day after the sowing, a wettable powder or emulsifiable concentrate having the compound of the present invention formulated in accordance with a usual formulation method, was weighed so that the active ingredient would be a predetermined amount and diluted with water in an amount of 500 L/ha. The herbicide adjusted was applied by a small size sprayer for preemergence treatment. On the 20th to 23rd day after the application of the herbicide, the growth of the respective plants was visually observed, and the herbicidal effects were evaluated by growth controlling degrees (%) ranging from 0 (equivalent to the untreated control) to 100 (complete kill), whereby the results shown in Table 4, were obtained. Compound Nos. in Table 4 correspond to Compound Nos. in Table 1 and 2 given hereinbefore.

[13] = test system: prickly sida (Sida spinosa L.): SEDSP; test: Test Example 1 pre-emergence herbicidal activity, SIDSP; settings: Rate 63 g a.i./ha, visually observed 20th to 23rd day after application
Outline: as §1

[14] = test system: soybean (Glycine max Merr.): GLXMA; test: Test Example 1 pre-emergence herbicidal activity, GLXMA; settings: Rate 63 g a.i./ha, visually observed 20th to 23rd day after application
Outline: as §1

Question: With `COc1c(Cl)cc(F)c(-c2nn(C)c(OC(F)F)c2Cl)c1N(C=O)CC(=O)c1ccc(Cl)cc1` [Compound 1-13] as the compound, how does the “Pre-emergence Herbicidal Activity TRZAX (growth controlling degree)” value (“Pre-emergence Herbicidal Activity TRZAX” below) [1] read?
Answer: 30%

Question: What about the “growth controlling degree, AMARE” value ([2]; 63 g a.i./ha) of the same compound?
Answer: 100%

Question: What about the “growth controlling degree, SIDSP” value ([3]; 63 g a.i./ha) of the same compound?
Answer: 100%

Question: What about the “Pre-emergence Herbicidal Activity SETVI (growth controlling degree)” value (shortened to “Pre-emergence Herbicidal Activity SETVI”) [4] of the same compound?
Answer: 90%

Question: And the “growth controlling degrees (%) SAGPY” value [5]?
Answer: 0%

Question: And the “growth controlling degree, GLXMA” value ([6]; 63 g a.i./ha)?
Answer: 50%

Question: What about the “growth controlling degree, ORYSA” value ([7]; 63 g a.i./ha) of the same compound?
Answer: 70%

Question: And the “growth controlling degree, SETVI” value ([8]; 63 g a.i./ha)?
Answer: 90%

Question: What about the “growth controlling degrees (%) SCPJO” value [9] of the same compound?
Answer: 40%

Question: What about the “growth controlling degree, ECHCO” value ([10]; 63 g a.i./ha) of the same compound?
Answer: 80%

Question: And the “growth controlling degrees (%) ECHOR” value [11]?
Answer: 95%

Question: What about the “Pre-emergence Herbicidal Activity XANST (growth controlling degree)” value (“Pre-emergence Herbicidal Activity XANST” for short) [12] of the same compound?
Answer: 50%

Question: What about the “Pre-emergence Herbicidal Activity SIDSP (growth controlling degree)” value (“Pre-emergence Herbicidal Activity SIDSP” below) [13] of the same compound?
Answer: 100%

Question: And the “Pre-emergence Herbicidal Activity GLXMA (growth controlling degree)” value (shortened to “Pre-emergence Herbicidal Activity GLXMA”) [14]?
Answer: 50%

Question: `COc1c(Cl)cc(F)c(-c2nn(C)c(OC(F)F)c2Cl)c1N(C=O)CC(C)=O` [Compound 1-14] was tested. Which “Pre-emergence Herbicidal Activity TRZAX” value [1] did it give?
Answer: 40%

Question: And the “growth controlling degree, AMARE” value ([2]; 63 g a.i./ha)?
Answer: 100%

Question: What about the “growth controlling degree, SIDSP” value ([3]; 63 g a.i./ha) of the same compound?
Answer: 100%

Question: What about the “Pre-emergence Herbicidal Activity SETVI” value [4] of the same compound?
Answer: 100%

Question: And the “growth controlling degrees (%) SAGPY” value [5]?
Answer: 98%

Question: What about the “growth controlling degree, GLXMA” value ([6]; 63 g a.i./ha) of the same compound?
Answer: 60%

Question: And the “growth controlling degree, ORYSA” value ([7]; 63 g a.i./ha)?
Answer: 40%

Question: And the “growth controlling degree, SETVI” value ([8]; 63 g a.i./ha)?
Answer: 100%

Question: And the “growth controlling degrees (%) SCPJO” value [9]?
Answer: 90%

Question: What about the “growth controlling degree, ECHCO” value ([10]; 63 g a.i./ha) of the same compound?
Answer: 98%

Question: What about the “growth controlling degrees (%) ECHOR” value [11] of the same compound?
Answer: 100%

Question: And the “Pre-emergence Herbicidal Activity XANST” value [12]?
Answer: 100%

Question: What about the “Pre-emergence Herbicidal Activity SIDSP” value [13] of the same compound?
Answer: 100%

Question: And the “Pre-emergence Herbicidal Activity GLXMA” value [14]?
Answer: 60%

Question: For `Cn1nc(-c2c(F)cc(Cl)c(OC(F)F)c2N)c(Cl)c1OC(F)F` [Compound 1-81, 3-chloro-6-[4-chloro-5-(difluoromethoxy)-1-methyl-1H-pyrazol-3-yl]-2-(difluoromethoxy)-5-fluorobenzenamine], which “Pre-emergence Herbicidal Activity TRZAX” value [1] is on record?
Answer: 20%

Question: And the “growth controlling degree, AMARE” value ([2]; 125 g a.i./ha)?
Answer: 100%

Question: What about the “growth controlling degree, SIDSP” value ([3]; 125 g a.i./ha) of the same compound?
Answer: 100%

Question: What about the “Pre-emergence Herbicidal Activity SETVI” value [4] of the same compound?
Answer: 100%

Question: What about the “growth controlling degrees (%) SAGPY” value [5] of the same compound?
Answer: 95%

Question: And the “growth controlling degree, GLXMA” value ([6]; 125 g a.i./ha)?
Answer: 80%

Question: And the “growth controlling degree, ORYSA” value ([7]; 125 g a.i./ha)?
Answer: 70%

Question: And the “growth controlling degree, SETVI” value ([8]; 125 g a.i./ha)?
Answer: 100%

Question: What about the “growth controlling degrees (%) SCPJO” value [9] of the same compound?
Answer: 100%

Question: And the “growth controlling degree, ECHCO” value ([10]; 125 g a.i./ha)?
Answer: 100%

Question: What about the “growth controlling degrees (%) ECHOR” value [11] of the same compound?
Answer: 100%

Question: What about the “Pre-emergence Herbicidal Activity XANST” value [12] of the same compound?
Answer: 60%

Question: What about the “Pre-emergence Herbicidal Activity SIDSP” value [13] of the same compound?
Answer: 100%

Question: What about the “Pre-emergence Herbicidal Activity GLXMA” value [14] of the same compound?
Answer: 20%
